Earlier results as cited in Sander's compilation of Henry's law constants (doi:10.1016/s0016-7037(99)00330-0).

Test: Henry solubility constant Hcp at 298.15 K (mol/(m3 Pa))
Conditions: reference: Plyasunov and Shock (2000); cited value

SMILES | Henry solubility constant Hcp
CC(C)C(C)(C)O [2,3-dimethyl-2-butanol] | 0.38
C[C@@H]1CCCC[C@@H]1C [cis-1,2-dimethylcyclohexane] | 2.8e-05
CC=C(C)C [2-methyl-2-butene] | 6.7e-05
Cc1cccc(C)c1C [1,2,3-trimethylbenzene] | 0.0026
C#CCCCC#C [1,6-heptadiyne] | 0.0046

Next, values leading:

Henry solubility constant Hcp | SMILES
5.3e-05 | C1CCCCC1 [cyclohexane]
0.0001 | C1CCCCCC1 [cycloheptane]
6.9e-06 | CCCCCC [hexane]
